Data set [1] is described as follows: Compound stability in rat liver microsomes. The settings on record: for half-life: pH 7.4, 37° C., NADPH, read-out: Rat T1/2; for CLint scaled: pH 7.4, in vivo CLint extrapolated. Type of data set: in vitro ADME.
A short description of data set [2]: Pharmacokinetics after intravenous and oral administration in rats. Type of data set: in vivo. The settings on record: for clearance (CL) / AUC(0-t) / half-life / Vd: iv dosing, 1 mg/kg; for F: oral bioavailability; for AUC(0-t) / half-life / Vd: rat, plasma; for Vd: read-out: Vss.

The CLint scaled is the capacity of the preparation to metabolise the compound, expressed as a volume cleared per time. The term AUC(0-t) denotes the area under the concentration-time curve up to a stated or last time point.

For the compound `Cc1c2ccc(Nc3ncc(Cl)c(NC4CCN(c5ccc(C#N)cn5)CC4)n3)cc2nn1C` [Ex. 4], in data set [1], the half-life was 23.2 min and the CLint scaled was 107 mL/min/kg. Moreover, in data set [2], the “clearance (CL)” value is listed as 0.43 L/h/kg, the F came out at 78.76%, the AUC(0-t) was 2340 ng·h/mL and the half-life is 103 min. Moreover, in data set [2], the Vd was 0.72 L/kg.
As for `Cc1c2ccc(Nc3ncc(Cl)c(NC4CCN(c5ccc(C#N)nn5)CC4)n3)cc2nn1C` [Ex. 12, 6-(4-((5-chloro-2-((2,3-dimethyl-2H-indazol-6-yl)amino)pyrimidin-4-yl)amino)piperidin-1-yl)pyridazine-3-carbonitrile], in data set [1], the half-life amounted to 18.9 min and the CLint scaled was 131 mL/min/kg. In data set [2], the “clearance (CL)” value stood at 0.68 L/h/kg, the F was 39.2%, the AUC(0-t) was 1480 ng·h/mL and the half-life was 29.4 min. For the same compound, the Vd in data set [2] came out at 0.5 L/kg.
Consider `Cc1cc(Nc2ncc(Cl)c(NC3CCN(c4ccc(C#N)nn4)CC3)n2)nn1C` [Ex. 13, 6-(4-((5-chloro-2-((1,5-dimethyl-1H-pyrazol-3-yl)amino)pyrimidin-4-yl)amino)piperidin-1-yl)pyridazine-3-carbonitrile], for which, in data set [1], the half-life turned out to be 9.68 min and the intrinsic clearance (CLint scaled) is 257 mL/min/kg.
With `Cn1cc(Nc2ncc(Cl)c(NC3CCN(c4ccc(C#N)cn4)CC3)n2)cn1` [Ex. 1, 6-(4-((5-chloro-2-((1-methyl-1H-pyrazol-4-yl)amino)pyrimidin-4-yl)amino)piperidin-1-yl)nicotinonitrile], in data set [1], the half-life is 27.7 min and the CLint scaled was 89.7 mL/min/kg. In data set [2], the “clearance (CL)” value was found to be 0.23 L/h/kg, the F turned out to be 136.8%, the AUC(0-t) turned out to be 4660 ng·h/mL and the half-life is 58.8 min. Moreover, the Vd in data set [2] is 0.31 L/kg.
With `Cc1nn(C)cc1Nc1ncc(Cl)c(NC2CCN(c3ccc(C#N)nn3)CC2)n1` [Ex. 11, 6-(4-((5-chloro-2-((1,3-dimethyl-1H-pyrazol-4-yl)amino)pyrimidin-4-yl)amino)piperidin-1-yl)pyridazine-3-carbonitrile], in data set [1], the half-life stood at 23.6 min and the CLint scaled is 105 mL/min/kg. Also, in data set [2], the “clearance (CL)” value came to 1.06 L/h/kg, the F is reported as 61.8%, the AUC(0-t) was 931 ng·h/mL and the half-life was 27 min. Further, the Vd in data set [2] came out at 0.62 L/kg.
Regarding `CN(c1nc(Nc2cnn(C)c2)ncc1Cl)C1CCN(c2ccc(C#N)cn2)CC1` [Ex. 5, 6-(4-((5-chloro-2-((1-methyl-1H-pyrazol-4-yl)amino)pyrimidin-4-yl) (methyl)amino)piperidin-1-yl)nicotinonitrile], in data set [1], the half-life stood at 16.5 min and the CLint scaled is 150 mL/min/kg. Further, in data set [2], the “clearance (CL)” value was determined as 1.78 L/h/kg, the F amounted to 182.46%, the AUC(0-t) is 572 ng·h/mL and the half-life was 30.6 min. Besides, the Vd in data set [2] was determined as 0.67 L/kg.
Consider `Cc1nn(C)cc1Nc1ncc(Cl)c(NC2CCN(c3ccc(C#N)cn3)CC2)n1` [Ex. 10, 6-(4-((5-chloro-2-((1,3-dimethyl-1H-pyrazol-4-yl)amino)pyrimidin-4-yl)amino)piperidin-1-yl)nicotinonitrile], for which, in data set [1], the half-life came out at 17.4 min and the CLint scaled is 142 mL/min/kg. In data set [2], the “clearance (CL)” value turned out to be 0.58 L/h/kg, the F was found to be 75.3%, the AUC(0-t) turned out to be 1740 ng·h/mL and the half-life is 43.2 min. Further, the Vd in data set [2] was determined as 0.63 L/kg.

These data come from patent US10059689B2, “Substituted heteroaryl compounds and methods of use” (Sunshine Lake Pharma Co., Ltd., priority 2014, dated 2018).
